Assay [1] deals with T1, Polyadenylate-binding protein 1 (Homo sapiens, UniProt P11940). Description: PABP1 MLLE–PAM2 interaction inhibitors, dose response, miRNA deadenylation inhibitor project, biochemical, fluorescence polarization, Cy5-PAM2 peptide, secondary (AID 602260). Format: functional. Particulars: read-out: IC50_Mean. (In general: Polarisation of emitted light reports the rotation of a fluorescent probe.)

The target of assay [2] is T1, Polyadenylate-binding protein 1. Description: PABP1 MLLE–PAM2 binding inhibitor potency, dose response, biochemical, fluorescence polarization, FITC-PAM2 peptide (AID 602259). The conditions noted are these: read-out: IC50_Mean. Format: functional.
Assay [3] addresses T2, RNA-binding protein pos-1 (Caenorhabditis elegans, UniProt G5EF15).
T2 sequence (G5EF15 whole entry): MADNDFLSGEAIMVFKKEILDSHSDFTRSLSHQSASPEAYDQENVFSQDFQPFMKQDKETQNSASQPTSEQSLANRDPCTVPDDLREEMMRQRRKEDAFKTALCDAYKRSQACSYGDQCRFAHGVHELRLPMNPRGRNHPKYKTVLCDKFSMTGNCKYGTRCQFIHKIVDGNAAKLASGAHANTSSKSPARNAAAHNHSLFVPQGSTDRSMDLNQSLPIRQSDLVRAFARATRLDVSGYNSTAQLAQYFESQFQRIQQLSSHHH
Description: inhibitors of POS-1/mex-3 RNA binding, dose response, biochemical, fluorescence polarization (AID 1964).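 Note: purified POS-1 fused to maltose binding protein made in E. coli; potency of compounds blocking POS-1 binding to fluorescent RNA.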

In assay [4] the target is T3, Zinc finger protein mex-5 (Caenorhabditis elegans, UniProt Q9XUB2).
T3 sequence (Q9XUB2 whole entry): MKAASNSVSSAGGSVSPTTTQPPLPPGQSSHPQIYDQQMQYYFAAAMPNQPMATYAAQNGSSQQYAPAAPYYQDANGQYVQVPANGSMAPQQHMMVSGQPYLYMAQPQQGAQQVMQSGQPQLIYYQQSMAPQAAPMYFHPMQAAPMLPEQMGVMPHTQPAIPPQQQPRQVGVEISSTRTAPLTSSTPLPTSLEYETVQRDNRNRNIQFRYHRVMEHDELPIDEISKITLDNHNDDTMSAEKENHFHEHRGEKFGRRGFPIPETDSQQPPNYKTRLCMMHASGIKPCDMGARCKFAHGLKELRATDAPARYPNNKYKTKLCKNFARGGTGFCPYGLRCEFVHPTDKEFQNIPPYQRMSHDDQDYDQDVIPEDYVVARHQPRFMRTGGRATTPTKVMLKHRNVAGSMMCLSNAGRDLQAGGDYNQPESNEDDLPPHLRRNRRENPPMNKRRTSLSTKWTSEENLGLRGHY
Description: MEX-5/TCR-2 RNA interaction inhibitors, dose response, biochemical, C. elegans, fluorescence polarization (AID 1960).

In assay [5] the target is T4, Rac GTPase-activating protein 1 (Homo sapiens, UniProt Q9H0H5).
T4 sequence (Q9H0H5 whole entry): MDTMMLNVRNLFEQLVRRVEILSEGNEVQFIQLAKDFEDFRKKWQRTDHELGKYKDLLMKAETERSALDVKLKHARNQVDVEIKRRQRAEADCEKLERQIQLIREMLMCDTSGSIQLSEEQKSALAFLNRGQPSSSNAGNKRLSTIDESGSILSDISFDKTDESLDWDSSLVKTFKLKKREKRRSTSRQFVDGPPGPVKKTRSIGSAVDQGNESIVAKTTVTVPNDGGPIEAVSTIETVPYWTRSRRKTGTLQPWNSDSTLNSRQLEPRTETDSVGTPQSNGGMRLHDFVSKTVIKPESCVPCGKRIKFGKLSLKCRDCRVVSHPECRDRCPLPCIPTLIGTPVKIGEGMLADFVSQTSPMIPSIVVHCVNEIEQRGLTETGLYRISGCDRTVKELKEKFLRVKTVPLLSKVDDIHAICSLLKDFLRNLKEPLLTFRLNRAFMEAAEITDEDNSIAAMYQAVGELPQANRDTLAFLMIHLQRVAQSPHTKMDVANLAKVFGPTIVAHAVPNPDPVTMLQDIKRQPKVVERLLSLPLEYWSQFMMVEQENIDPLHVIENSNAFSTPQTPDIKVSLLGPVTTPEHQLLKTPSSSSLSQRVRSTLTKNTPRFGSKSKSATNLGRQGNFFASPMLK
Description: MgcRacGAP GTPase-activating activity inhibitors, confirmation, biochemical, ADP Hunter fluorescence, primary and confirmatory (AID 624330). In kind it is functional.

A further assay has as its system H4. Description: Luminescence Cell-Based Dose Response HTS to Identify Activators of 5'UTR Stem-Loop Driven Prion Protein mRNA Translation in H4 Neuroglioblastoma Cells. [Related pubchem assays: 1829 (Project Summary), 1814 (Primary HTS)]. In kind it is functional. Particulars: Homo sapiens.
Assay [6] in a line: Luminescence Cell-Based Dose Response HTS to Identify Activators of Luciferase Translation or Activity in H4 […] Cells. [Related pubchem assays: 1829 (Project Summary), 1814 (Primary HTS)]. Format: functional.
Assay [7] addresses T5, Heat shock factor protein 1 (Mus musculus, UniProt P38532).
T5 sequence (P38532 whole entry): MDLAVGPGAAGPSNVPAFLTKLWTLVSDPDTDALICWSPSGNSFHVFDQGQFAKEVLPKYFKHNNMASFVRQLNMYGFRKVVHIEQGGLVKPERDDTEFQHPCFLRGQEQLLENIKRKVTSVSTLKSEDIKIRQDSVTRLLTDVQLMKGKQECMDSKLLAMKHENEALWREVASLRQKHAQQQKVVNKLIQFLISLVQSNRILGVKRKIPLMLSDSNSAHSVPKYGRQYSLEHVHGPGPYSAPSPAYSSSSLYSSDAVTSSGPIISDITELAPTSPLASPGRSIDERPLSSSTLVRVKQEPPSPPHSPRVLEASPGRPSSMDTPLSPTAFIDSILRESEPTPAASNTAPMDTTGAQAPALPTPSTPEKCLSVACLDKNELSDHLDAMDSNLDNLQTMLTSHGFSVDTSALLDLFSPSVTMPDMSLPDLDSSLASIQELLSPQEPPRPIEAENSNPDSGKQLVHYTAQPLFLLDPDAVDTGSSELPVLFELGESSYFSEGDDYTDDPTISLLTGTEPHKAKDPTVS
Description: HSF1 potentiators in luciferase reporter cells, confirmation, cell-based, NIH3T3, luminescence, dose retest (AID 435004).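 Note: stress induced by proteasome inhibitor MG132 added 30 min after compound; luciferase reporter driven by HSF1 response element in NIH3T3 cells; actives raise luminescence as potentiators of the MG132 stress response.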 In kind it is functional.

The next assay addresses Nonstructural protein 1 (Influenza A virus, UniProt Q194T2). In kind it is functional, Influenza A virus (A/California/07/2009(H1N1)).
The nature of assay [8]: inhibitors of SNCA 5'UTR-driven reporter translation, confirmation, H4 neuroglioma cells, luminescence (AID 1988). In kind it is functional, cell-based.
Assay [9] can be described thus: inhibitors of firefly luciferase expression or activity, dose response, H4 neuroglioma cells, luminescence (AID 1990). Format: functional, cell-based.
Assay [10] can be described thus: Luminescence Cell-Based Dose Response HTS to Identify Inhibitors of 5'UTR Stem-Loop Driven Prion Protein mRNA Translation in H4 Neuroglioblastoma Cells. [Related pubchem assays: 1827 (Project Summary), 1813 (Primary HTS)]. Format: functional.
For assay [11], the target named is FAD-linked sulfhydryl oxidase ALR (Homo sapiens, UniProt P55789). Description: inhibitors of human ALR sulfhydryl oxidase, dose response, biochemical, H2O2 detection, luminescence, cherry-pick (AID 493248).
Assay [12] is described as follows: Luminescence Cell-Based Dose Retest to Confirm Inhibitors of Cancer Stem Cells. [Related pubchem assays (depositor defined):AID2717, AID2721]. Format: functional. The conditions noted are these: Homo sapiens.

Among the data in ChEMBL document CHEMBL1201862, “PubChem BioAssay data set” (2004) are IC50, EC50 and AC50 values, retold here.

The source made the active and inactive calls.

T1 sequence (P11940 whole entry): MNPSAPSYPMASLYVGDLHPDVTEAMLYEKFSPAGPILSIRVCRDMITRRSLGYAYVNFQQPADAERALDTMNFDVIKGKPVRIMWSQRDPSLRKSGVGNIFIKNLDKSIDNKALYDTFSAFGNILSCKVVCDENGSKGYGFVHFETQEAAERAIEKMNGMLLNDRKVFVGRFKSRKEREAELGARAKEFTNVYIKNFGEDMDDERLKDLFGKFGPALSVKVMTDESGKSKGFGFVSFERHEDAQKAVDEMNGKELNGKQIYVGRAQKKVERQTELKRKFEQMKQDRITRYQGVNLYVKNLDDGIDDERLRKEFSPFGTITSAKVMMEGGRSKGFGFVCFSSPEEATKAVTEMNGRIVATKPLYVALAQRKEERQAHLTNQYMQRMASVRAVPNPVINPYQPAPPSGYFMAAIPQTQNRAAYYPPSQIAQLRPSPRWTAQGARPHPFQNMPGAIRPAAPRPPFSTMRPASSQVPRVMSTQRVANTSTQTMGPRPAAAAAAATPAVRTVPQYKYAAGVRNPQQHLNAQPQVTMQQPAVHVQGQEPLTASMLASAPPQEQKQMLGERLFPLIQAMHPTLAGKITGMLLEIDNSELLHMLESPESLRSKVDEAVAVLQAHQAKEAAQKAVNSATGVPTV
Sequence of Nonstructural protein 1 (Q194T2 whole entry): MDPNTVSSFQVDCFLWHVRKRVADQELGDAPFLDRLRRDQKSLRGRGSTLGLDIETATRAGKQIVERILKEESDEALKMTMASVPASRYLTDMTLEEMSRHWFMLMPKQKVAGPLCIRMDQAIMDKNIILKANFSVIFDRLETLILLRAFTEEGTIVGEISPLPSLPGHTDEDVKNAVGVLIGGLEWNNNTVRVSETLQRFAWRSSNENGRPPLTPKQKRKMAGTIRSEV
Sequence of FAD-linked sulfhydryl oxidase ALR (P55789 whole entry): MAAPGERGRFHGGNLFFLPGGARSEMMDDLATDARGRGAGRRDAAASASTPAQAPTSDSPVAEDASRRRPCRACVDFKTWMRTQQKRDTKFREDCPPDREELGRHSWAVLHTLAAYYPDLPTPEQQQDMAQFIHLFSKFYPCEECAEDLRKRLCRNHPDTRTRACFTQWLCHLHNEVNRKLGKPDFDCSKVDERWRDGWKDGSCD

As for `NC(S)=NN=C1c2cc(S(=O)(=O)N3CCOCC3)ccc2-c2ccc(S(=O)(=O)N3CCOCC3)cc21`, the IC50 in [1] and in assay [2] was > 66 µM (inactive) each time.

`Cc1cccc(-n2c(N)cc(=O)nc2SCC(=O)Nc2cc(C)on2)c1`: the IC50 in [1] and in assay [2] was > 66 µM (inactive) throughout. By EC50 is commonly meant the midpoint of the concentration-response curve. `O=C(NN1C(=O)c2ccccc2NC1c1ccccn1)c1ccc(Br)cc1` (configuration not stated): the EC50 in assay [3] is 64.9 µM (active); in assay [4] it was 15.5 µM (active). With `c1ccc(CN2CCN(Cc3ccc4ccccc4c3)CC2)cc1`, the IC50 in assay [5] was 123 µM (active). On the same count and under the same terms, under `c1ccc(-c2ccccc2OCCOCCN2CCOCC2)cc1` stands 58.9 µM (active). As to `CN(C)C=O.Oc1cccc2c(NC(S)=Nc3ccc(OC(F)F)cc3)cccc12`, the values for the EC50 (in the assay on H4; in assay [6]) were > 120 µM (not active) and 12.8 µM (active), respectively. In addition, the IC50 in assay [5] was 116 µM (active). For `Cc1cccn2c(=O)c3cc(C(=O)N(C)C)n(C)c3nc12`, the values for the IC50 in assay [1] and in assay [2] were > 66 µM (inactive) and 39.3 µM (inactive), respectively. In the case of `CSc1ccc(CCNC(=O)c2nn(C)c3c2CS(=O)(=O)c2ccccc2-3)cc1`, in assay [7], the EC50 was > 260 µM (inactive). Regarding `Cc1c(C(=O)NCc2ccc3c(c2)cc(C)n3C)cccc1[N+](=O)[O-]`, the IC50 in assay [1] and in assay [2] was > 66 µM (inactive) in each case. Take `CCOC(=O)C1=C(c2ccccc2)NC(=O)NC1c1cc(Br)c(O)c(OC)c1` (configuration not stated): in [7], the EC50 was > 260 µM (inactive). Take `COc1cccc(-c2nc(CSCC(=O)NCC3CCCO3)c(C)o2)c1` (configuration not stated): the IC50 in assay [1] and in assay [2] was > 66 µM (inactive) each time. As to `Cn1cc(/C=C2/SC(=O)N(c3ccccc3)C2=O)c2ccccc21`, the EC50 in the assay with H4 is 94.6 µM (active); in assay [6] it was 50.8 µM (active). As for `COc1ccc(C)cc1-n1c(=O)c2ccccc2c2ccccc2c1=O`, the EC50 in assay [7] was 11.7 µM (active).

For `N=C1/C(=C\c2ccc(SCc3ccccc3)o2)C(=O)N=C2SC(CC(=O)N3CCOCC3)=NN12`, the values for the EC50 in [3] and in [4] were 63.4 µM (active) and 33.3 µM (active), respectively. Regarding `Cc1ccc2oc(C(=O)N3CCC(O)(c4cccc(C(F)(F)F)c4)CC3)c(C)c2c1`, the EC50 in assay [7] was 54.9 µM (active). Still for that read-out and setting: under `CCOC(=O)/C(C#N)=C/c1cn(CCC(=O)O)nc1-c1ccc(Cl)cc1` stands > 260 µM (inactive).

On to `CCOC(=O)c1c(N/C=C2/C(=O)NC(=O)N(c3cccc(C)c3)C2=O)sc2c1CCCC2`, for which the EC50 in assay [3] and in assay [4] was > 300 µM (not active) each time. For `O=C(CCSc1ccc(Cl)cc1)N1CCCCCC1`, the EC50 with H4 is 21.6 µM (active); in assay [6], > 120 µM (not active).

Take `CC(C)C(=O)OCC(=O)Nc1ccc(N=Nc2ccccc2)cc1`: the IC50 at Nonstructural protein 1 is > 100 µM (active).

As to `CCC(Sc1nc2nnc(C)c-2c(N)n1-c1ccc(C)c(Cl)c1)C(=O)N1CCOCC1` (configuration not stated), the EC50 in [7] was > 260 µM (inactive). Turning to `CCCNc1cc(S)nc(N)n1`, the IC50 in [1] and in assay [2] was > 66 µM (inactive) throughout. `CN(C)c1ccc(NC(=O)c2ccc3nsnc3c2)cc1`: the IC50 in assay [5] is 65.4 µM (active). With `O=C(COC(=O)C1CCCCC1)Nc1ccc(N2CCCCC2)cc1`, the IC50 at Nonstructural protein 1 is 34.6 µM (active).

In the case of `CC1CCN(c2ccccc2NC(=S)NC(=O)C(C)(C)C)CC1`, the IC50 in assay [1] and in assay [2] was > 66 µM (inactive) in each case. Besides, the EC50 in assay [8] was > 120 µM (not active); in assay [9] it was 16 µM (active); in assay [10], > 120 µM (not active). Turning to `O=C(c1ccccc1)c1ccc(C(=O)N2CCN(c3ccc(O)cc3)CC2)cc1`, the IC50 in assay [5] is 34 µM (active). On to `NC(=S)N=Nc1c(O)[nH]c2c(Cl)cc(Cl)cc12`, for which the IC50 in assay [1] and in [2] was > 66 µM (inactive) in each case. As to `COc1ccc(/C=C(\NC(=O)c2ccccc2)C(=O)N/N=C/c2sccc2C)cc1`, the EC50 in [7] was > 260 µM (inactive).

`N#Cc1c(-c2ccc(Cl)cc2)c2c([nH]c1=O)-c1ccccc1OC2`: the EC50 in assay [3] was > 300 µM (not active); in assay [4], 53 µM (active). In general, AC50 refers to the concentration at which the activity in the assay is half-maximal. With `COc1cc(/C=N/NC(=O)c2cc3ccccc3[nH]2)ccc1O`, the IC50 in assay [5] was 17.8 µM (active). Besides, the AC50 in assay [11] was 0.393 µM (active). With `O=C(NCC1CCCO1)C(=O)N/N=C/c1cc(Cl)ccc1O` (configuration not stated), the IC50 at Nonstructural protein 1 is 7.81 µM (active). `CCOc1cc(/C=N/n2c(C)nnc2C)ccc1O`: in assay [5], the IC50 was 103 µM (active). Still for that read-out and setting: the figure for `CCN(CC)S(=O)(=O)c1cccc(-c2nnc(S)n2/N=C/c2ccc(OC(F)F)cc2)c1` is 147 µM (active). As for `Cc1cc([N+](=O)[O-])nn1CC(=O)N/N=C/c1ccc(O)cc1O`, on Nonstructural protein 1, the IC50 is 14.2 µM (active). Also, the AC50 in assay [12] is 12.1 µM (active). Regarding `CCc1cc(/C(Cc2csc(C)n2)=N/O)c(O)cc1O`, in [5], the IC50 was 28.3 µM (active). Take `CCOC(=O)c1cnc2nc(C)ccc2c1O`: the EC50 in assay [3] was 13.7 µM (inconclusive); in assay [4], 11.8 µM (active).
